Data: patent publication US8143262B2, “7-(3′,4′-Dialkoxyphenyl)[1,2,4]-triazolo[1,5-A]pyrimidine compounds, process for preparing thereof, and pharmaceutical composition for treating or preventing asthma, chronic obstructive pulmonary disease, arthritis, atopic dermatitis, tumor and degenerative brain diseases comprising the same” (Korea Research Institute of Chemical Technology, priority 2007, dated 2012)

What follows are compounds tested against T1, Human PDE-4d (Homo sapiens, UniProt Q08499) (assay: Inhibition of PDE-4 activity ([3H]cAMP hydrolysis, recombinant catalytic domain)). Settings: PDE4d 1 nM, cAMP 250 nM, 34° C., 45 minutes; read-out: IC50 against PDE-4 enzyme.
T1 construct: The catalytic domain of PDE4d was cloned to pGEX4T3 (APBiotech) as GST fusion expression vector; GST (N); made in house; host or cells: E. coli BL21, DE3
T1 sequence (Q08499 386-715 limits assumed): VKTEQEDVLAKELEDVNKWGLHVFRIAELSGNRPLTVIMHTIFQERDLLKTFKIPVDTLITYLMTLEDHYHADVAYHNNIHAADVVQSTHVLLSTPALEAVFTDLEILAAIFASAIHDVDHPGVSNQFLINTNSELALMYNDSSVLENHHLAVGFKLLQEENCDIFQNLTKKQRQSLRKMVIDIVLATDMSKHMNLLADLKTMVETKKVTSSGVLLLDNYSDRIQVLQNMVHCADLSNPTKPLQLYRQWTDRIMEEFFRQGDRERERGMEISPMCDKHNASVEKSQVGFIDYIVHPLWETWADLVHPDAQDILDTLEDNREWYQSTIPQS
Format: biochemical
Experimental: Experiment of inhibiting PDE-4 activity was carried out by modifying the method of Loughney (Loughney et al., Journal of Biological Chemistry, 1996, 271(2), 796-806). Human PDE-4d prepared by means of gene recombination technology was used as PDE-4d
The catalytic domain of PDE4d was cloned to pGEX4T3 (APBiotech) as GST fusion expression vector, and then PDE4d gene was transformed to E. coli BL21, DE3. The strain was cultured at 37° C. in LB medium, and when OD reached about 0.3˜0.5, the temperature was lowered to 18° C. to induce expression of PDE4d by using 0.5 mM IPTG. After 15 hours from induction of the expression, cells with PDE4d expressed were recovered. The cells were suspended in a buffer solution (50 mM Tris, pH 8.0, 0.4M NaCl, 5 mM DTT), and crushed, centrifuged and purified. The columns used for the purification were Q-cephalose (APBiotech), Glutanione-cephalose (APBiotech) and Superdex200 gel permeation chromatography (APBiotech), in this order.
In order to measure the ability of individual compound to inhibit PDE4d activity, PDE4d 1 nM and cAMP (Sigma) 250 nM as substrate were added to the reaction buffer (50 mM Tris-HCl (pH 7.5) and 4 mM MgCl2), and individual compound obtained from Example 1 was added in a concentration from 1 to 50 μM thereto, and the mixture was reacted at 34° C. for 45 minutes. Total reaction solution was 60 μl. As to cAMP, a mixture with the ratio of [^3H]cAMP (Amersham, 1 μCi/μl) to cAMP (hot:cold, that is, isotope:non-isotope) being 1:200 was used. Then, the reaction was quenched by heating at 95° C. for 2 minutes. After cooling the mixture for 3 minutes, 1 mg/ml of Snake Venome (Sigma V0376) (30 μl) was added thereto. After reacting at 34° C. for 30 minutes, 30 μl of the reaction mixture was added to 250 μl of DOWEX 1×2-100 ion exchange resin (Aldrich, previously mixed with distilled water in a ratio of 1:1.6) by portions, and the mixture was vigorously stirred for 2 minutes. After settling the resin down, the supernatant (130 μl) was added to 2 ml of scintillation cocktail (Packard), and the mixture was thoroughly mixed, and then measured by using beta-counter. With respect to the enzyme activity of control group (experiment carried out without adding compound of Chemical Formula (1)), the concentration of each test compound to inhibit 50% of enzyme activity was determined as IC50.
`O=C(O)c1ccc(-c2nc3nccc(-c4ccc(OC(F)F)c(OCC5CC5)c4)n3n2)cn1` [Compound 137, 5-[7-{3-(cyclopropylmethoxy)-4-(difluoromethoxy)phenyl}-[1,2,4]triazolo[1,5-a]pyrimidin-2-yl]pyridine-2-carboxylic acid] was tested, and the IC50 was 200 nM.
`N#Cc1ccc(-c2nc3nccc(-c4ccc(OC(F)F)c(OCC5CC5)c4)n3n2)cc1` [Compound 117, 2-(4-Cyanophenyl)-7-[3-(cyclopropylmethoxy)-4-(difluoromethoxy)phenyl]-[1,2,4]triazolo[1,5-a]pyrimidine] gave an IC50 of 50 nM.
`FC(F)Oc1ccc(-c2ccnc3nc(-c4cccnc4)nn23)cc1OCC1CC1` [Compound 111, 3-[7-{3-(cyclopropylmethoxy)-4-(difluoromethoxy)phenyl}-[1,2,4]triazolo[1,5-a]pyrimidin-2-yl]-pyridinium bisulfate] showed an IC50 of 42 nM.
Compound `FC(F)Oc1ccc(-c2ccnc3nc(-c4cccnc4)nn23)cc1OCC1CC1` [Compound 101, 7-[3-(cyclopropylmethoxy)-4-(difluoromethoxy)phenyl]-2-pyridin-3-yl-[1,2,4]triazolo[1,5-a]pyrimidine] has an IC50 of 18 nM.
Work on `FC(F)Oc1ccc(-c2ccnc3nc(-c4cccc(Br)c4)nn23)cc1OCC1CC1` [Compound 121, 2-(3-Bromophenyl)-7-[3-(cyclopropylmethoxy)-4-(difluoromethoxy)phenyl]-[1,2,4]triazolo[1,5-a]pyrimidine] yielded an IC50 of 14 nM.
`FC(F)Oc1ccc(-c2ccnc3nc(-c4cccnc4)nn23)cc1OCC1CC1` [Compound 112, 3-[7-{3-(cyclopropylmethoxy)-4-(difluoromethoxy)phenyl}-[1,2,4]triazolo[1,5-a]pyrimidin-2-yl]-pyridinium chloride] gave an IC50 of 33 nM.
With `N#Cc1cccc(-c2nc3nccc(-c4ccc(OC(F)F)c(OC(F)F)c4)n3n2)c1` [Compound 122, 7-(3,4-Bis-difluoromethoxyphenyl)-2-(3-cyanophenyl)-[1,2,4]triazolo[1,5-a]pyrimidine] the IC50 was 47 nM.
`FC(F)Oc1ccc(-c2ccnc3nc(-c4cccnc4Cl)nn23)cc1OCC1CC1` [Compound 105, 2-(2-chloropyridin-3-yl)-7-[3-(cyclopropylmethoxy)-4-(difluoromethoxy)phenyl]-[1,2,4]triazolo[1,5-a]pyrimidine] gave an IC50 of 52 nM.
Work on `N#Cc1ccc(-c2nc3nccc(-c4ccc(OC(F)F)c(OCC5CC5)c4)n3n2)cn1` [Compound 123, 2-(2-cyano-pyridin-5-yl)-7-[3-(cyclopropylmethoxy)-4-(difluoromethoxy)phenyl]-[1,2,4]triazolo[1,5-a]pyrimidine] yielded an IC50 of 170 nM.
In the case of `Nc1cccc(-c2nc3nccc(-c4ccc(OC(F)F)c(OCC5CC5)c4)n3n2)c1` [Compound 119, 2-(3-Aminophenyl)-7-[3-(cyclopropylmethoxy)-4-(difluoromethoxy)phenyl]-[1,2,4]triazolo[1,5-a]pyrimidine], the IC50 is reported as 6 nM.
In the case of `FC(F)Oc1ccc(-c2ccnc3nc(-c4ccncc4)nn23)cc1OCC1CC1` [Compound 103, 7-[3-(Cyclopropylmethoxy)-4-(difluoromethoxy)phenyl]-2-pyridin-4-yl-[1,2,4]triazolo[1,5-a]pyrimidine], the IC50 is reported as 79 nM.
`Cc1cc(C)cc(-c2nc3nccc(-c4ccc(OC(F)F)c(OCC5CC5)c4)n3n2)c1` [Compound 133, 7-[3-(Cyclopropylmethoxy)-4-(difluoromethoxy)phenyl]-2-(3,5-dimethylphenyl)-[1,2,4]triazolo[1,5-a]pyrimidine] gave an IC50 of 42 nM.
Compound `Cc1cccc(-c2nc3nccc(-c4ccc(OC(F)F)c(OCC5CC5)c4)n3n2)c1` [Compound 132, 7-[3-(Cyclopropylmethoxy)-4-(difluromethoxy)phenyl]-2-m-tolyl-[1,2,4]triazolo[1,5-a]pyrimidine] has an IC50 of 30 nM.
`O=[N+]([O-])c1cccc(-c2nc3nccc(-c4ccc(OC(F)F)c(OCC5CC5)c4)n3n2)c1` [Compound 116, 7-[3-(Cyclopropylmethoxy)-4-(difluoromethoxy)phenyl]-2-(3-nitrophenyl)-[1,2,4]triazolo[1,5-a]pyrimidine] gave an IC50 of 20 nM.
`Cc1ccc(-c2nc3nccc(-c4ccc(OC(F)F)c(OCC5CC5)c4)n3n2)cc1` [Compound 113, 7-[3-(Cyclopropylmethoxy)-4-(difluoromethoxy)phenyl]-2-p-tolyl-[1,2,4]triazolo[1,5-a]pyrimidine] showed an IC50 of 50 nM.
Compound `COc1ccc(-c2ccnc3nc(-c4cccnc4)nn23)cc1OC1CCCC1` [Compound 135, 7-[3-(Cyclopentoxy)-4-methoxyphenyl]-2-(3-pyridyl)-[1,2,4]triazolo[1,5-a]pyrimidine] has an IC50 of 50 nM.
In the case of `O=C(O)c1ccc(-c2nc3nccc(-c4ccc(OC(F)F)c(OCC5CC5)c4)n3n2)cc1` [Compound 118, 4-[7-{3-(cyclopropylmethoxy)-4-(difluoromethoxy)phenyl}-[1,2,4]triazolo[1,5-a]pyrimidin-2-yl]benzoic acid], the IC50 is reported as 30 nM.
`FC(F)Oc1ccc(-c2ccnc3nc(-c4ccc(Cl)nc4)nn23)cc1OCC1CC1` [Compound 104, 2-(6-chloropyridin-3-yl)-7-[3-(cyclopropylmethoxy)-4-(difluoromethoxy)phenyl]-[1,2,4]triazolo[1,5-a]pyrimidine] gave an IC50 of 160 nM.
For `COc1cccc(-c2nc3nccc(-c4ccc(OC(F)F)c(OCC5CC5)c4)n3n2)c1` [Compound 107, 7-[3-(Cyclopropylmethoxy)-4-(difluoromethoxy)phenyl]-2-(3-methoxyphenyl)-[1,2,4]triazolo[1,5-a]pyrimidine], the IC50 was 6 nM.
With `NC(=O)c1ccc(-c2nc3nccc(-c4ccc(OC(F)F)c(OCC5CC5)c4)n3n2)cn1` [Compound 139, 5-[7-{3-(cyclopropylmethoxy)-4-(difluoromethoxy)phenyl}-[1,2,4]triazolo[1,5-a]pyrimidin-2-yl]pyridine-2-carboxamide] the IC50 was 46 nM.
`FC(F)Oc1ccc(-c2ccnc3nc(-c4ccc(C(F)(F)F)cc4)nn23)cc1OCC1CC1` [Compound 125, 7-[3-(Cyclopropylmethoxy)-4-(difluoromethoxy)phenyl]-2-(4-trifluoromethylphenyl)-[1,2,4]triazolo[1,5-a]pyrimidine] showed an IC50 of 190 nM.
Work on `[O-][n+]1ccc(-c2nc3nccc(-c4ccc(OC(F)F)c(OCC5CC5)c4)n3n2)cc1` [Compound 110, 4-[7-{3-(Cyclopropylmethoxy)-4-(difluoromethoxy)phenyl}-[1,2,4]triazolo[1,5-a]pyrimidine-2-yl]-pyridine-N-oxide] yielded an IC50 of 160 nM.
For `FC(F)Oc1ccc(-c2ccnc3nc(-c4cccc(C(F)(F)F)c4)nn23)cc1OCC1CC1` [Compound 128, 7-[3-(Cyclopropylmethoxy)-4-(difluoromethoxy)phenyl]-2-(3-trifluoromethylphenyl)-[1,2,4]triazolo[1,5-a]pyrimidine], the IC50 was 30 nM.
Work on `O=C(O)c1cccc(-c2nc3nccc(-c4ccc(OC(F)F)c(OCC5CC5)c4)n3n2)c1` [Compound 131, 3-[7-{3-(Cyclopropylmethoxy)-4-(difluoromethoxy)phenyl}-[1,2,4]triazolo[1,5-a]pyrimidin-2-yl]benzoic acid] yielded an IC50 of 20 nM.
`COC(=O)c1ccc(-c2nc3nccc(-c4ccc(OC(F)F)c(OCC5CC5)c4)n3n2)cn1` [Compound 138, 5-[7-{3-(cyclopropylmethoxy)-4-(difluoromethoxy)phenyl}-[1,2,4]triazolo[1,5-a]pyrimidin-2-yl]pyridine-2-carboxylic acid methyl ester] gave an IC50 of 180 nM.
With `N#Cc1ncccc1-c1nc2nccc(-c3ccc(OC(F)F)c(OCC4CC4)c3)n2n1` [Compound 124, 2-(6-cyano-pyridin-5-yl)-7-[3-(cyclopropylmethoxy)-4-(difluoromethoxy)phenyl]-[1,2,4]triazolo[1,5-a]pyrimidine] the IC50 was 190 nM.
`[O-][n+]1cc(-c2nc3nccc(-c4ccc(OC(F)F)c(OCC5CC5)c4)n3n2)ccc1Cl` [Compound 108, 3-[7-{3-(Cyclopropylmethoxy)-4-(difluoromethoxy)phenyl}-[1,2,4]triazolo[1,5-a]pyrimidine-2-yl]-6-Chloropyridine-N-oxide] showed an IC50 of 240 nM.

Same assay, conditions: comment on Table 2
`FC(F)Oc1ccc(-c2ccnc3nc(-c4cccc(Br)c4)nn23)cc1OCC1CC1` [Compound 121, 2-(3-Bromophenyl)-7-[3-(cyclopropylmethoxy)-4-(difluoromethoxy)phenyl]-[1,2,4]triazolo[1,5-a]pyrimidine] was tested, and the “activity on inhibiting PDE-4 (in words)” value was “excellent activity on inhibiting PDE-4”.
With `Nc1cccc(-c2nc3nccc(-c4ccc(OC(F)F)c(OCC5CC5)c4)n3n2)c1` [Compound 119, 2-(3-Aminophenyl)-7-[3-(cyclopropylmethoxy)-4-(difluoromethoxy)phenyl]-[1,2,4]triazolo[1,5-a]pyrimidine] the “activity on inhibiting PDE-4 (in words)” value was “excellent activity on inhibiting PDE-4”.
With `COc1cccc(-c2nc3nccc(-c4ccc(OC(F)F)c(OCC5CC5)c4)n3n2)c1` [Compound 107, 7-[3-(Cyclopropylmethoxy)-4-(difluoromethoxy)phenyl]-2-(3-methoxyphenyl)-[1,2,4]triazolo[1,5-a]pyrimidine] the “activity on inhibiting PDE-4 (in words)” value was “excellent activity on inhibiting PDE-4”.
With `O=C(O)c1cccc(-c2nc3nccc(-c4ccc(OC(F)F)c(OCC5CC5)c4)n3n2)c1` [Compound 131, 3-[7-{3-(Cyclopropylmethoxy)-4-(difluoromethoxy)phenyl}-[1,2,4]triazolo[1,5-a]pyrimidin-2-yl]benzoic acid] the “activity on inhibiting PDE-4 (in words)” value was “excellent activity on inhibiting PDE-4”.
